Measurements published in US8551937B2, “Peptide having an extending action for half-life of object peptide in plasma” (priority 2008, dated 2013).

Target: T1, human type recombinant neutral endopeptidase (hNEP) (Homo sapiens, UniProt P08473)
T1 construct: purchased R&D Systems, Inc., U.S.A
Assay: Resistance to peptidase: stability to hNEP (HPLC residual rate)
Format: in vitro ADME
Settings: hNEP, 37° C., 1 hour, 0.5 μg/mL, 20 mM MES pH 6.5, mean of N = 2
Method: The experiment was conducted in N=2 for each sample. Native CNP-22, chimeric CNP (A, B) (structure mentioned already; final concentration: 0.5 μg/mL) and 100 μL of reaction solution (medium: 20 mM MES, pH 6.5) of human type recombinant neutral endopeptidase (hNEP, manufactured by R&D Systems, Inc., U.S.A.) were prepared. […] Distilled water (100 μL) was added to the sample after boiling followed by well mixing and 50 μL thereof was analyzed in a water-acetonitrile system using a high-performance liquid chromatography system LC-10A (manufactured by Shimadzu). The analytical data were analyzed by a Chromato-Pack (CRA-10A, manufactured by Shimadzu) and area of the peak zone of unchanged substance was calculated. The area of average zone of unchanged substance when made to react at 37° C. was divided by the area of average zone of the boiled sample to calculate the residual rate of the unchanged substance after 1 hour.

T1 sequence (P08473 whole entry): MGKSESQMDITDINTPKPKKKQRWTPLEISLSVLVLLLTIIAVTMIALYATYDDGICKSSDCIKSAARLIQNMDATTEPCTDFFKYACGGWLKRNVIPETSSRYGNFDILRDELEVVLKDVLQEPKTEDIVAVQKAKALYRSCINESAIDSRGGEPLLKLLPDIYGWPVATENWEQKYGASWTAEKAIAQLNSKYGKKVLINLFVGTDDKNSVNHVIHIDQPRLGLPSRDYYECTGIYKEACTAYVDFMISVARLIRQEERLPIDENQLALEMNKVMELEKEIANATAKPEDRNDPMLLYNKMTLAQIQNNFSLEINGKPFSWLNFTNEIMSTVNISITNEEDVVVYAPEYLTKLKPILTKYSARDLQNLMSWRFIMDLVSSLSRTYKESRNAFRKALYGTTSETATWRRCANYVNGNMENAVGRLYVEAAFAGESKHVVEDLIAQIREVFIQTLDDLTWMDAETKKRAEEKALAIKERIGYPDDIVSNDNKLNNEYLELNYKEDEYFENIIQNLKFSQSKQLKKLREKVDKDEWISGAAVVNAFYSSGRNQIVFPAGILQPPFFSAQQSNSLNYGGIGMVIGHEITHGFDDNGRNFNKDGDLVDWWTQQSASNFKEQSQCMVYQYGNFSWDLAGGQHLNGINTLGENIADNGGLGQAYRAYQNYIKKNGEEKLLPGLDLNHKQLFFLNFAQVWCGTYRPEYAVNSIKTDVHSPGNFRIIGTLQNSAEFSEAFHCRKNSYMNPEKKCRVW

Structure (SMILES): CC[C@H](C)[C@@H]1NC(=O)[C@H](CCCNC(=N)N)NC(=O)[C@H](CC(=O)O)NC(=O)[C@H](CC(C)C)NC(=O)[C@H](CCCCN)NC(=O)[C@H](CC(C)C)NC(=O)CNC(=O)[C@H](Cc2ccccc2)NC(=O)[C@@H](NC(=O)CNC(=O)[C@H](CCCCN)NC(=O)[C@H](CO)NC(=O)[C@H](CC(C)C)NC(=O)CN)CSSC[C@@H](C(=O)O)NC(=O)CNC(=O)[C@H](CC(C)C)NC(=O)CNC(=O)[C@H](CO)NC(=O)[C@H](CCSC)NC(=O)[C@H](CO)NC(=O)CNC1=O [Native CNP-22]
- Residual Rate: 16.7%
